According to ChEMBL document CHEMBL4420071, “Method for treating skin with retinoids and retinoid boosters” (2013):

Columns and labels:
[1] = organism: Homo sapiens; assay: Inhibition of transglutaminase in human keratinocytes assessed as mean transglutaminase activity level at 3.73 10^-4M in presence of 10 uM retinal relative to retinal alone; type: cell-based; design: scale not given: the % may be the effect or the level left
[2] = organism: Homo sapiens; assay: Inhibition of transglutaminase in human keratinocytes assessed as mean transglutaminase activity level at 1.0 10^-3M in presence of 10 uM retinal relative to retinal alone; type: cell-based; design: scale not given: the % may be the effect or the level left
[3] = organism: Homo sapiens; assay: Inhibition of transglutaminase in human keratinocytes assessed as mean transglutaminase activity level at 1.1 10^-8M in presence of 10 uM retinal relative to retinal alone; type: cell-based; design: scale not given: the % may be the effect or the level left
[4] = organism: Homo sapiens; assay: Inhibition of transglutaminase in human keratinocytes assessed as mean transglutaminase activity level at 5.0 10^-8M in presence of 10 uM retinal relative to retinal alone; type: cell-based; design: scale not given: the % may be the effect or the level left
[5] = target: T1, Cellular retinoic acid-binding protein 2 (Homo sapiens) (UniProt P29373); assay: Inhibition of radioactive all-trans retinoic acid binding to CRABP2 (unknown origin) expressed in Escherichia coli BLR(DE3)pLys incubated for 1 hr by scintillation counting assay; details: concentration not given here
T1 sequence (whole entry): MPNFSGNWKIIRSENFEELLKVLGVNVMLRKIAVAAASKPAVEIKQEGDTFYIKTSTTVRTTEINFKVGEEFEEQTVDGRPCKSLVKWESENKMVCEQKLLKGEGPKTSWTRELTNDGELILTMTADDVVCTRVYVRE

[6] = organism: Homo sapiens; assay: Inhibition of transglutaminase in human keratinocytes assessed as mean transglutaminase activity level at 3.29 10^-7M in presence of 10 uM retinal relative to retinal alone; type: cell-based; design: scale not given: the % may be the effect or the level left
[7] = organism: Homo sapiens
Description: Inhibition of transglutaminase in human keratinocytes in presence of 10 uM retinal relative to retinal alone

[8] = organism: Homo sapiens; assay: Inhibition of transglutaminase in human keratinocytes assessed as mean transglutaminase activity level at 8.2 10^-6M in presence of 10 uM retinal relative to retinal alone; type: cell-based; design: scale not given: the % may be the effect or the level left
[9] = organism: Homo sapiens; assay: Inhibition of transglutaminase in human keratinocytes assessed as mean transglutaminase activity level at 1.23 10^-5M in presence of 10 uM retinal relative to retinal alone; type: cell-based; design: scale not given: the % may be the effect or the level left
[10] = organism: Homo sapiens; assay: Inhibition of transglutaminase in human keratinocytes assessed as mean transglutaminase activity level at 1.1 10^-4M in presence of 10 uM retinal relative to retinal alone; type: cell-based; design: scale not given: the % may be the effect or the level left
[11] = organism: Homo sapiens; assay: Inhibition of transglutaminase in human keratinocytes assessed as mean transglutaminase activity level at 4.1 10^-5M in presence of 10 uM retinal relative to retinal alone; type: cell-based; design: scale not given: the % may be the effect or the level left
[12] = organism: Homo sapiens; assay: Inhibition of transglutaminase in human keratinocytes assessed as mean transglutaminase activity level at 1.65 10^-7M in presence of 10 uM retinal relative to retinal alone; type: cell-based; design: scale not given: the % may be the effect or the level left
[13] = organism: Homo sapiens; assay: Inhibition of transglutaminase in human keratinocytes in presence of retinal relative to retinal alone; type: cell-based; details: concentration not given here
[14] = organism: Homo sapiens; assay: Inhibition of transglutaminase in human keratinocytes assessed as mean transglutaminase activity level at 1.78 10^-5M in presence of 10 uM retinal relative to retinal alone; type: cell-based; design: scale not given: the % may be the effect or the level left
[15] = organism: Homo sapiens; assay: Inhibition of transglutaminase in human keratinocytes assessed as mean transglutaminase activity level at 6.58 10^-7M in presence of 10 uM retinal relative to retinal alone; type: cell-based; design: scale not given: the % may be the effect or the level left
[16] = organism: Homo sapiens; assay: Inhibition of transglutaminase in human keratinocytes assessed as mean transglutaminase activity level at 1.79 10^-9M in presence of 10 uM retinal relative to retinal alone; type: cell-based; design: scale not given: the % may be the effect or the level left
[17] = organism: Homo sapiens; assay: Inhibition of transglutaminase in human keratinocytes assessed as mean transglutaminase activity level at 5.93 10^-6M in presence of 10 uM retinal relative to retinal alone; type: cell-based; design: scale not given: the % may be the effect or the level left
[18] = organism: Homo sapiens; assay: Inhibition of transglutaminase in human keratinocytes assessed as mean transglutaminase activity level at 2.19 10^-9M in presence of 10 uM retinal relative to retinal alone; type: cell-based; design: scale not given: the % may be the effect or the level left
[19] = organism: Homo sapiens; assay: Inhibition of transglutaminase in human keratinocytes assessed as mean transglutaminase activity level at 8.78 10^-9M in presence of 10 uM retinal relative to retinal alone; type: cell-based; design: scale not given: the % may be the effect or the level left
[20] = organism: Homo sapiens; assay: Inhibition of transglutaminase in human keratinocytes assessed as mean transglutaminase activity level at 4.39 10^-8M in presence of 10 uM retinal relative to retinal alone; type: cell-based; design: scale not given: the % may be the effect or the level left
[21] = organism: Homo sapiens; assay: Inhibition of transglutaminase in human keratinocytes assessed as mean transglutaminase activity level at 1.6 10^-4M in presence of 10 uM retinal relative to retinal alone; type: cell-based; design: scale not given: the % may be the effect or the level left
[22] = organism: Homo sapiens; assay: Inhibition of transglutaminase in human keratinocytes assessed as mean transglutaminase activity level at 1.98 10^-6M in presence of 10 uM retinal relative to retinal alone; type: cell-based; design: scale not given: the % may be the effect or the level left
[23] = organism: Homo sapiens; assay: Inhibition of transglutaminase in human keratinocytes assessed as mean transglutaminase activity level at 5.33 10^-5M in presence of 10 uM retinal relative to retinal alone; type: cell-based; design: scale not given: the % may be the effect or the level left
[24] = organism: Homo sapiens; assay: Inhibition of transglutaminase in human keratinocytes at 1 uM relative to control; type: cell-based
[25] = organism: Homo sapiens; assay: Inhibition of transglutaminase in human keratinocytes assessed as mean transglutaminase activity level at 1.41 10^-6M in presence of 10 uM retinal relative to retinal alone; type: cell-based; design: scale not given: the % may be the effect or the level left
[26] = organism: Homo sapiens; assay: Inhibition of transglutaminase in human keratinocytes assessed as mean transglutaminase activity level at 4.22 10^-5M in presence of 10 uM retinal relative to retinal alone; type: cell-based; design: scale not given: the % may be the effect or the level left
[27] = organism: Homo sapiens; assay: Inhibition of transglutaminase in human keratinocytes assessed as mean transglutaminase activity level at 6.9 10^-9M in presence of 10 uM retinal relative to retinal alone; type: cell-based; design: scale not given: the % may be the effect or the level left
[28] = organism: Homo sapiens; assay: Inhibition of transglutaminase in human keratinocytes assessed as mean transglutaminase activity level at 4.69 10^-7M in presence of 10 uM retinal relative to retinal alone; type: cell-based; design: scale not given: the % may be the effect or the level left
[29] = organism: Homo sapiens; assay: Inhibition of transglutaminase in human keratinocytes assessed as mean transglutaminase activity level at 3.3123 10^-4M in presence of 10 uM retinal relative to retinal alone; type: cell-based; design: scale not given: the % may be the effect or the level left
[30] = organism: Homo sapiens; assay: Inhibition of transglutaminase in human keratinocytes assessed as mean transglutaminase activity level at 6.26 10^-8M in presence of 10 uM retinal relative to retinal alone; type: cell-based; design: scale not given: the % may be the effect or the level left
[31] = organism: Homo sapiens; assay: Inhibition of transglutaminase in human keratinocytes assessed as mean transglutaminase activity level at 1.0 10^-9M in presence of 10 uM retinal relative to retinal alone; type: cell-based; design: scale not given: the % may be the effect or the level left
[32] = organism: Homo sapiens; assay: Inhibition of transglutaminase in human keratinocytes assessed as mean transglutaminase activity level at 1.25 10^-8M in presence of 10 uM retinal relative to retinal alone; type: cell-based; design: scale not given: the % may be the effect or the level left
[33] = organism: Homo sapiens; assay: Inhibition of transglutaminase in human keratinocytes assessed as mean transglutaminase activity level at 3.8 10^-4M in presence of 10 uM retinal relative to retinal alone; type: cell-based; design: scale not given: the % may be the effect or the level left
[34] = organism: Homo sapiens; assay: Inhibition of transglutaminase in human keratinocytes assessed as mean transglutaminase activity level at 1.14 10^-3M in presence of 10 uM retinal relative to retinal alone; type: cell-based; design: scale not given: the % may be the effect or the level left

**Q.** Which Activity [1] does the source give for `CC(C)CCCCCCCCCCCCCCC(=O)O` here?
**A.** -5.3%

**Q.** And the Activity [2]?
**A.** -8.6%

**Q.** What about the Activity [3] of the same compound?
**A.** 78%

**Q.** And the Activity [4]?
**A.** 78%

**Q.** What about the inhibition [5] of the same compound?
**A.** > 50%

**Q.** And the Activity [6]?
**A.** 123%

**Q.** And the IC20 [7]?
**A.** 6.23 ×10⁻⁵ M

**Q.** What about the Activity [8] of the same compound?
**A.** 103%

**Q.** And the Activity [9]?
**A.** 80%

**Q.** What about the Activity [10] of the same compound?
**A.** 1.2%

**Q.** What about the Activity [11] of the same compound?
**A.** 67%

**Q.** And the Activity [12]?
**A.** 95%

**Q.** `O=C(NCNC(=O)NC1C(=O)NC(=O)N1CO)NC1C(=O)NC(=O)N1CO` (stereo not given) was tested. Which inhibition [13] did it give?
**A.** 35%

**Q.** Which results are given for `CCCCCCCC(=O)OC[C@H](COP(=O)([O-])OCC[N+](C)(C)C)OC(=O)CCCCCCC`?
**A.** Activity [14]: 104%; Activity [15]: 92.8%; Activity [16]: 82%; Activity [17]: 129%; Activity [18]: 88.6%; Activity [19]: 119%; Activity [20]: 127%; Activity [21]: 58.1%; Activity [22]: 110%; Activity [23]: 95.4%

**Q.** `CC1=C(/C=C/C(C)=C/C=C/C(C)=C/C=O)C(C)(C)CCC1` was tested. Which inhibition [24] did it give?
**A.** 55%

**Q.** What does the source list for `O=C(Nc1ccc(Cl)cc1)Nc1ccc(Cl)c(Cl)c1`?
**A.** Activity [25]: -0.3%; Activity [26]: -11.2%; Activity [27]: 77.6%; Activity [28]: 15.9%; Activity [29]: -3.2%; IC20 [7]: 6.18 ×10⁻⁷ M; Activity [30]: 18.9%; Activity [31]: 54.4%; Activity [32]: 100%; Activity [33]: 3.8%; Activity [34]: 36.3%
